ChEMBL document CHEMBL4739716, “Gpr139 receptor modulators” (2020)

What was measured:
[1] = target: T1, Probable G-protein coupled receptor 139 (Homo sapiens, UniProt Q6DWJ6); test: Agonist activity at human GPR139 expressed in CHO-K1 cells assessed as increase in calcium flux by calcium 5 dye based FLIPR assay; format: functional, cell-based
T1 sequence (Q6DWJ6 whole entry): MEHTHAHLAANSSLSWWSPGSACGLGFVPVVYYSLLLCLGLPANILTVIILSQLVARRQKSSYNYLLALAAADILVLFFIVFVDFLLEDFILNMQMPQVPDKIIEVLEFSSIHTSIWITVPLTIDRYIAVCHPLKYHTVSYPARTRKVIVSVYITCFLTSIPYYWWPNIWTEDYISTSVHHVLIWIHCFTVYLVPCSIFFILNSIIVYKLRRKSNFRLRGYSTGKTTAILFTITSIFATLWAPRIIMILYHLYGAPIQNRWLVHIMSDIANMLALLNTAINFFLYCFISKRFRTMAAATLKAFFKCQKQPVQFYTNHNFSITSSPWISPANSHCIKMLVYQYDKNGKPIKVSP

[2] = target: T2, Probable G-protein coupled receptor 139 (Homo sapiens) (UniProt Q6DWJ6); test: Agonist activity at human GPR139 expressed in CHO-K1 cells assessed as increase in calcium flux by calcium 5 dye based FLIPR assay relative to JNJ63533054; format: functional, cell-based; conditions: filed as agonist
T2 sequence (whole entry): T1 sequence (Q6DWJ6 whole entry)

[3] = target: T3, Probable G-protein coupled receptor 139 (Rattus norvegicus, UniProt P0C0W8); test: Agonist activity at rat GPR139 expressed in CHO-K1 cells assessed as increase in calcium flux by calcium 5 dye based FLIPR assay; format: cell-based
T3 sequence (P0C0W8 whole entry): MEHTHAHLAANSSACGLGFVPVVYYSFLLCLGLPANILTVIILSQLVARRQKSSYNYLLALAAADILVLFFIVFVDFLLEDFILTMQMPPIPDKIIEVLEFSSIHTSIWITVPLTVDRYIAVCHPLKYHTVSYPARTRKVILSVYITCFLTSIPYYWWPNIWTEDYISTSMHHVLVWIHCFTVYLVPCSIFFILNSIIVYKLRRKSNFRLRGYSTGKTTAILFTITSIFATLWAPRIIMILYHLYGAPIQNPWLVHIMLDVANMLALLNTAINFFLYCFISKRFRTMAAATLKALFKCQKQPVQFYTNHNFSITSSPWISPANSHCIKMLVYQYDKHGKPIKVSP

[4] = target: T4, Probable G-protein coupled receptor 139 (Rattus norvegicus) (UniProt P0C0W8); test: Agonist activity at rat GPR139 expressed in CHO-K1 cells assessed as increase in calcium flux by calcium 5 dye based FLIPR assay relative to JNJ63533054; format: cell-based
T4 sequence (whole entry): T3 sequence (P0C0W8 whole entry)

[5] = target: T1, Probable G-protein coupled receptor 139; test: Agonist activity at human GPR139 expressed in CHO-K1 cells assessed as induction of beta-arrestin 2 recruitment incubated for 90 mins by PathHunter assay; format: cell-based
[6] = target: T2, Probable G-protein coupled receptor 139 (Homo sapiens); test: Agonist activity at human GPR139 expressed in CHO-K1 cells assessed as induction of beta-arrestin 2 recruitment incubated for 90 mins by PathHunter assay relative to JNJ63533054; format: cell-based

Row | SMILES | EC50 [1] [nM] | Emax [2] [%] | EC50 [3] [nM] | Emax ([4]; filed as agonist) [%] | EC50 ([5]; cho-k1) [nM] | Emax ([6]; filed as agonist) [%] | EC50 ([1]; cho-k1) [nM] | EC50 ([3]; cho-k1) [nM] | EC50 [5] [nM] | Emax [6] [%] | Emax [4] [%]
1 | C[C@H](NC(=O)Cn1nc2c(C3CC3)ccnn2c1=O)c1ccc(Cl)c(F)c1 | < 1 | > 80 | < 1 | > 80 | 1 | > 80 | – | – | – | – | –
2 | CC(C)[C@H](NC(=O)Cn1nc2cccnn2c1=O)c1ccc(Cl)c(F)c1 | – | 50 | – | 50 | – | – | 1 | 1 | ≥ 100 | < 25 | –
3 | C[C@H](NC(=O)Cn1nc2ncc(F)cn2c1=O)c1ccc(OC(F)(F)F)cc1 | – | > 80 | ≥ 100 | – | – | – | 1 | – | ≥ 100 | 25 | 25
4 | C[C@H](NC(=O)Cn1nc2ncccn2c1=O)c1ccc(Cl)c(F)c1 | – | > 80 | – | 50 | – | 50 | 1 | 1 | ≥ 100 | – | –
5 | CNc1ccnn2c(=O)n(CC(=O)N[C@@H](C)c3ccc(OC(F)(F)F)cc3)nc12 | < 1 | > 80 | – | 50 | 10 | 50 | – | 1 | – | – | –
6 | C[C@H](NC(=O)Cn1nc2ccccn2c1=O)c1cnc(C(F)(F)F)nc1 | ≥ 100 | 50 | ≥ 100 | – | – | – | – | – | ≥ 100 | 25 | < 25
7 | O=C(Cn1nc2cccnn2c1=O)NC1(c2ccc(Cl)cc2)CC1 | ≥ 100 | 50 | ≥ 100 | 50 | – | – | – | – | ≥ 100 | < 25 | –
8 | COc1cnc2nn(CC(=O)N[C@@H](C)c3ccc(OC(F)(F)F)cc3)c(=O)n2c1 | – | > 80 | ≥ 100 | – | 1 | – | 1 | – | – | 25 | < 25
9 | C[C@H](NC(=O)Cn1nc2ncc(Cl)cn2c1=O)c1ccc(Cl)c(F)c1 | < 1 | > 80 | – | > 80 | – | 50 | – | 1 | ≥ 100 | – | –
10 | COc1ccn2c(=O)n(CC(=O)N[C@@H](C)c3ccc(Cl)c(F)c3)nc2n1 | < 1 | > 80 | < 1 | > 80 | 1 | > 80 | – | – | – | – | –
11 | C[C@H](NC(=O)Cn1nc2cc(NC3COC3)ccn2c1=O)c1ccc(Cl)c(F)c1 | – | > 80 | < 1 | > 80 | 1 | > 80 | 1 | – | – | – | –
12 | C[C@H](NC(=O)Cn1nc2ncccn2c1=O)c1ccc(OC(F)(F)F)c(F)c1 | – | > 80 | ≥ 100 | – | – | 25 | 1 | – | ≥ 100 | – | < 25
13 | C[C@H](NC(=O)Cn1nc2c(NCC(F)F)ccnn2c1=O)c1ccc(OC(F)(F)F)cc1 | < 1 | > 80 | – | – | 1 | – | – | 1 | – | 25 | 25
14 | Cc1cnn2c(=O)n(CC(=O)N[C@@H](C)c3ccc(Cl)c(F)c3)nc2c1C | < 1 | > 80 | < 1 | > 80 | – | 50 | – | – | < 1 | – | –
15 | O=C(Cn1nc2ccc(F)cn2c1=O)NC1(c2ccc(Cl)cc2)CC1 | – | > 80 | ≥ 100 | – | – | – | 10 | – | ≥ 100 | 25 | 25
16 | C[C@H](NC(=O)Cn1nc2c(I)ccnn2c1=O)c1ccc(OC(F)(F)F)cc1 | < 1 | 50 | – | 25 | – | – | – | 10 | ≥ 100 | < 25 | –
17 | C[C@H](NC(=O)Cn1nc2cc(Cl)cnn2c1=O)c1ccc(Cl)c(F)c1 | < 1 | > 80 | – | > 80 | 1 | 50 | – | 1 | – | – | –
18 | C[C@H](NC(=O)Cn1nc2c(N3CCOCC3)cccn2c1=O)c1ccc(Cl)c(F)c1 | < 1 | > 80 | < 1 | 50 | 10 | 50 | – | – | – | – | –
19 | C[C@H](NC(=O)Cn1nc2c(NC3COC3)ccnn2c1=O)c1ccc(Cl)c(F)c1 | < 1 | > 80 | – | > 80 | 10 | > 80 | – | 1 | – | – | –
20 | C[C@H](NC(=O)Cn1nc2ncc(C3CC3)cn2c1=O)c1ccc(Cl)c(F)c1 | < 1 | > 80 | – | 50 | 1 | 50 | – | 10 | – | – | –
21 | C[C@H](NC(=O)Cn1nc2cc(N3CCOCC3)cnn2c1=O)c1ccc(Cl)c(F)c1 | – | > 80 | – | > 80 | – | – | 1 | 1 | ≥ 100 | 25 | –

Continued, values first:

Row | EC50 [1] [nM] | Emax [2] [%] | EC50 [3] [nM] | Emax ([4]; filed as agonist) [%] | EC50 ([5]; cho-k1) [nM] | Emax ([6]; filed as agonist) [%] | EC50 ([1]; cho-k1) [nM] | EC50 ([3]; cho-k1) [nM] | EC50 [5] [nM] | Emax [6] [%] | Emax [4] [%] | SMILES
22 | – | > 80 | – | > 80 | – | 50 | 1 | 1 | ≥ 100 | – | – | Cc1cc([C@H](C)NC(=O)Cn2nc3cccnn3c2=O)ccc1Cl
23 | – | > 80 | – | > 80 | – | 50 | 1 | 1 | ≥ 100 | – | – | C[C@H](NC(=O)Cn1nc2cc(N3CCOCC3)ccn2c1=O)c1ccc(OC(F)(F)F)cc1
24 | – | > 80 | – | – | 10 | 50 | 1 | 1 | – | – | 25 | C[C@H](NC(=O)Cn1nc2ccccn2c1=O)c1ccc(C(F)(F)F)cc1
25 | – | > 80 | – | 50 | – | – | 1 | 10 | ≥ 100 | 25 | – | C[C@H](NC(=O)Cn1nc2cccnn2c1=O)c1ccc(Cl)cc1
26 | ≥ 100 | 50 | ≥ 100 | – | – | – | – | – | ≥ 100 | < 25 | < 25 | C[C@H](NC(=O)Cn1nc2ncccn2c1=O)c1ccc(C2CC2)cc1
27 | – | > 80 | – | – | 10 | 50 | 1 | 1 | – | – | 25 | Cc1ccc([C@H](C)NC(=O)Cn2nc3cccc(F)n3c2=O)cc1
28 | < 1 | > 80 | < 1 | > 80 | 1 | > 80 | – | – | – | – | – | Cc1ccn2c(=O)n(CC(=O)N[C@@H](C)c3ccc(Cl)c(F)c3)nc2c1
29 | – | > 80 | – | 50 | 10 | 50 | 1 | 1 | – | – | – | Cc1ccc([C@H](C)NC(=O)Cn2nc3cccnn3c2=O)cc1F
30 | – | > 80 | – | 50 | 10 | 50 | 1 | 1 | – | – | – | Cc1ccc([C@H](C)NC(=O)Cn2nc3ncccn3c2=O)cc1F
31 | ≥ 100 | 50 | – | – | 10 | – | – | 10 | – | 25 | 25 | COc1ccn2c(=O)n(CC(=O)N[C@@H](C)c3c(C)cc(C)cc3C)nc2c1
32 | < 1 | > 80 | < 1 | > 80 | 1 | > 80 | – | – | – | – | – | C[C@H](NC(=O)Cn1nc2ccc(F)cn2c1=O)c1ccc(Cl)c(F)c1
33 | < 1 | > 80 | < 1 | 50 | 1 | 50 | – | – | – | – | – | Cc1ccc([C@H](C)NC(=O)Cn2nc3cc(C)ccn3c2=O)cc1
34 | < 1 | > 80 | – | 50 | 1 | 50 | – | 1 | – | – | – | C[C@H](NC(=O)Cn1nc2ccc(F)cn2c1=O)c1ccc(OC(F)(F)F)cc1
35 | < 1 | > 80 | < 1 | 50 | 1 | > 80 | – | – | – | – | – | COc1ccn2c(=O)n(CC(=O)N[C@@H](C)c3ccc(Cl)c(F)c3)nc2c1
36 | – | > 80 | – | 50 | 1 | – | 1 | 1 | – | 25 | – | Cc1ccc2nn(CC(=O)N[C@@H](C)c3ccc(Cl)cc3)c(=O)n2n1
37 | < 1 | > 80 | – | > 80 | 1 | > 80 | – | 1 | – | – | – | Cc1ccc([C@H](C)NC(=O)Cn2nc3ccccn3c2=O)cc1Cl
38 | < 1 | > 80 | < 1 | > 80 | 10 | 50 | – | – | – | – | – | Cc1ccc([C@H](C)NC(=O)Cn2nc3ccc(F)cn3c2=O)cc1
